# Patent US11267859B2, “GM-CSF mimetics and methods of making and using same” (The Regents of the University of Colorado, a body corporate, priority 2017, dated 2022)
# Key:
# [1] = target: T1, human receptor (Homo sapiens, UniProt P15509+P32927); assay: Activity for the human GM-CSF receptor
# T1 sequence (P15509 23-400): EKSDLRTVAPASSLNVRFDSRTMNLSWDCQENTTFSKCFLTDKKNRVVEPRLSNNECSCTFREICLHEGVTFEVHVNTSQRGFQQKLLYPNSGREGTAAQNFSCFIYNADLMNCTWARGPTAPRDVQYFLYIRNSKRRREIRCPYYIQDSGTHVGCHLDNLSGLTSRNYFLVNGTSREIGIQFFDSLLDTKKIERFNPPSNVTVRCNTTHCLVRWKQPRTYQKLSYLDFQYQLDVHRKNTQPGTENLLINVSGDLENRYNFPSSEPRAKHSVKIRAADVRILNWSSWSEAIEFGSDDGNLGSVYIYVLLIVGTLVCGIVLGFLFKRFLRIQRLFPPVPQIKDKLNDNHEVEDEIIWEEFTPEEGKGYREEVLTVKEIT
# T1 sequence (P32927 17-897): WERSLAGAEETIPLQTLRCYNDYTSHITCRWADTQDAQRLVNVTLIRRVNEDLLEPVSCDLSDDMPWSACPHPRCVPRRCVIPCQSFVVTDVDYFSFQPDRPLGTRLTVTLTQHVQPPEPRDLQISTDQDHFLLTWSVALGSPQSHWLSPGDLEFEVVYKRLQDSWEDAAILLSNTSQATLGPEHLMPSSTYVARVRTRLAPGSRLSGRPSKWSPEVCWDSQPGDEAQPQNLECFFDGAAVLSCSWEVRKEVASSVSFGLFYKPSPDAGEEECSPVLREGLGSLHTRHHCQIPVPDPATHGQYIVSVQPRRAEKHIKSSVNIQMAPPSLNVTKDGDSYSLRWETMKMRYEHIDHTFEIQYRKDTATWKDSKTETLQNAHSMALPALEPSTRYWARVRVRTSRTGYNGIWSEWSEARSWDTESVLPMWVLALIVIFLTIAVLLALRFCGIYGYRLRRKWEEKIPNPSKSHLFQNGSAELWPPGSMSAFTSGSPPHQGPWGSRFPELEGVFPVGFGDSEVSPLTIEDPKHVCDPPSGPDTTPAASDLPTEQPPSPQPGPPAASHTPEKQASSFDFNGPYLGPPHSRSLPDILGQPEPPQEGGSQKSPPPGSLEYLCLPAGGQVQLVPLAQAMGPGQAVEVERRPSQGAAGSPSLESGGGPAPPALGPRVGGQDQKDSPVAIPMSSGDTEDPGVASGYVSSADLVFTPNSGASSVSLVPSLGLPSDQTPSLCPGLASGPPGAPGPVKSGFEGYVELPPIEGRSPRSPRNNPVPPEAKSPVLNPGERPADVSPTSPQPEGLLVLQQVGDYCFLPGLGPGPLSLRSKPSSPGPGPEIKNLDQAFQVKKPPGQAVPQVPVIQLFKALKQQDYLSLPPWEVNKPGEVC
# [2] = target: T2, mouse receptor (Mus musculus, UniProt P26955+Q00941); assay: Activity for the mouse GM-CSF receptor
# T2 sequence (Q00941 30-388): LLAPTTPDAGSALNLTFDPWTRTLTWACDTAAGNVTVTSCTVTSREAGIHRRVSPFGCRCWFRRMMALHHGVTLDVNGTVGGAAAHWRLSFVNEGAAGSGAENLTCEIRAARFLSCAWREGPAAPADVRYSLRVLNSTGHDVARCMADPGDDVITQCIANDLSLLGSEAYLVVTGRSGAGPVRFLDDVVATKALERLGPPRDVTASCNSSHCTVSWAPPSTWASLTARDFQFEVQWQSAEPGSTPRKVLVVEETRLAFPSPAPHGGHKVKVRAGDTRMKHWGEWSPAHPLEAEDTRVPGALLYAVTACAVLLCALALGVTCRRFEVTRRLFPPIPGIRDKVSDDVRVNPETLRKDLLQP
# T2 sequence (P26955 23-896): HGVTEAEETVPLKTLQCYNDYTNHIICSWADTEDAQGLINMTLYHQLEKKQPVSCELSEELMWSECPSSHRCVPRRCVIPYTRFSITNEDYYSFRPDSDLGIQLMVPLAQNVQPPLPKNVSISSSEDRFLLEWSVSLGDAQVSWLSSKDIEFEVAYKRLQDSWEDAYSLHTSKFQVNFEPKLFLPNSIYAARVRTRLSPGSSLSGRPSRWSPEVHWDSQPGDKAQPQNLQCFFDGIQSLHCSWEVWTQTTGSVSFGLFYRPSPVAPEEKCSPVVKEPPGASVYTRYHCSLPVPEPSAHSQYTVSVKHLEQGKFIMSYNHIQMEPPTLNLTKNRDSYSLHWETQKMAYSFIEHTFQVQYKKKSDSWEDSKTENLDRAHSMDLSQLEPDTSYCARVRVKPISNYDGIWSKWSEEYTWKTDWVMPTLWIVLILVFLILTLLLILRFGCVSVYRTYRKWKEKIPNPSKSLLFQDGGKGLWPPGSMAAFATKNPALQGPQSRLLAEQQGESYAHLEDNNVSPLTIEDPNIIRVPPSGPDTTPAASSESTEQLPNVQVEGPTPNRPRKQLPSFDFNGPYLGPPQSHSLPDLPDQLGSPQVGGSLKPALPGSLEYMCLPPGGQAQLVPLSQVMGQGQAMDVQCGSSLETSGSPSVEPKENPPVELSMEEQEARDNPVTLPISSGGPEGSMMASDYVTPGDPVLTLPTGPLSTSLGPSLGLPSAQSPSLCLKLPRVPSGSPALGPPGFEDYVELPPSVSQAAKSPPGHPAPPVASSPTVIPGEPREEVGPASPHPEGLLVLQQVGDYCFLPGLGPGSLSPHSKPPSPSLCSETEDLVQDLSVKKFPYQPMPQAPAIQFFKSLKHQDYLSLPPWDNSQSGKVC
sequence,measurement,setting,value
QPWEHVNAIQEAR {PEG4} DFLLVIP {PEG4} QPWEHVNAIQEAR {PEG4} DFLLVIP [Mimetic M7],activity for the human receptor,[1],does not have activity
same,activity for the mouse receptor,[2],has activity
